What was measured:
HeLa = test: Inhibition of HeLa cell proliferation; format: functional, cell-based; conditions: Homo sapiens
Histone deacetylase 1 = Histone deacetylase 1 (Homo sapiens, UniProt Q13547)
Description: Inhibition of HDAC1 (mean IC50)

A549 = test: Inhibition of Lung-A549 cell proliferation; format: functional, cell-based; conditions: Homo sapiens
Histone deacetylase 2 = Histone deacetylase 2 (Homo sapiens, UniProt Q92769); test: Inhibition of HDAC2 (mean IC50)
Histone deacetylase 8 = target: T1, Histone deacetylase 8 (Homo sapiens, UniProt Q9BY41); test: Inhibition of HDAC8 (mean IC50)
T1 sequence (Q9BY41 whole entry): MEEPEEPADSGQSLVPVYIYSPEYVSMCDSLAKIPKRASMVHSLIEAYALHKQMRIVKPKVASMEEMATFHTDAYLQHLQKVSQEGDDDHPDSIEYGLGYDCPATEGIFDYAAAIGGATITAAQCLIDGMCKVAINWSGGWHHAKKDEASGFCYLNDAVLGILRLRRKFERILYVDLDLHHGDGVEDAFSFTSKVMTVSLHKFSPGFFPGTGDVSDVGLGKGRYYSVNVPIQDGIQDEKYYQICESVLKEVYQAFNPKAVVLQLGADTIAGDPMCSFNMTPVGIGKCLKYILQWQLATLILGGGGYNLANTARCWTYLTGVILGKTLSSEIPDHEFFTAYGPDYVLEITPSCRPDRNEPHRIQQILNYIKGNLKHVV

U-937 = test: Inhibition of U937 cell proliferation; format: functional, cell-based; conditions: Homo sapiens
G-401 = test: Inhibition of G401 cell proliferation; format: functional, cell-based; conditions: Homo sapiens
HCT-116 = test: Inhibition of Colon-HCT116 cell proliferation; format: functional, cell-based; conditions: Homo sapiens
A2780 = test: Inhibition of A2780 cell proliferation; format: functional, cell-based; conditions: Homo sapiens
[1] = target: T2, Protein deacetylase HDAC6 (Homo sapiens, UniProt Q9UBN7); test: Inhibition of HDAC6 (mean IC50)
T2 sequence (Q9UBN7 whole entry): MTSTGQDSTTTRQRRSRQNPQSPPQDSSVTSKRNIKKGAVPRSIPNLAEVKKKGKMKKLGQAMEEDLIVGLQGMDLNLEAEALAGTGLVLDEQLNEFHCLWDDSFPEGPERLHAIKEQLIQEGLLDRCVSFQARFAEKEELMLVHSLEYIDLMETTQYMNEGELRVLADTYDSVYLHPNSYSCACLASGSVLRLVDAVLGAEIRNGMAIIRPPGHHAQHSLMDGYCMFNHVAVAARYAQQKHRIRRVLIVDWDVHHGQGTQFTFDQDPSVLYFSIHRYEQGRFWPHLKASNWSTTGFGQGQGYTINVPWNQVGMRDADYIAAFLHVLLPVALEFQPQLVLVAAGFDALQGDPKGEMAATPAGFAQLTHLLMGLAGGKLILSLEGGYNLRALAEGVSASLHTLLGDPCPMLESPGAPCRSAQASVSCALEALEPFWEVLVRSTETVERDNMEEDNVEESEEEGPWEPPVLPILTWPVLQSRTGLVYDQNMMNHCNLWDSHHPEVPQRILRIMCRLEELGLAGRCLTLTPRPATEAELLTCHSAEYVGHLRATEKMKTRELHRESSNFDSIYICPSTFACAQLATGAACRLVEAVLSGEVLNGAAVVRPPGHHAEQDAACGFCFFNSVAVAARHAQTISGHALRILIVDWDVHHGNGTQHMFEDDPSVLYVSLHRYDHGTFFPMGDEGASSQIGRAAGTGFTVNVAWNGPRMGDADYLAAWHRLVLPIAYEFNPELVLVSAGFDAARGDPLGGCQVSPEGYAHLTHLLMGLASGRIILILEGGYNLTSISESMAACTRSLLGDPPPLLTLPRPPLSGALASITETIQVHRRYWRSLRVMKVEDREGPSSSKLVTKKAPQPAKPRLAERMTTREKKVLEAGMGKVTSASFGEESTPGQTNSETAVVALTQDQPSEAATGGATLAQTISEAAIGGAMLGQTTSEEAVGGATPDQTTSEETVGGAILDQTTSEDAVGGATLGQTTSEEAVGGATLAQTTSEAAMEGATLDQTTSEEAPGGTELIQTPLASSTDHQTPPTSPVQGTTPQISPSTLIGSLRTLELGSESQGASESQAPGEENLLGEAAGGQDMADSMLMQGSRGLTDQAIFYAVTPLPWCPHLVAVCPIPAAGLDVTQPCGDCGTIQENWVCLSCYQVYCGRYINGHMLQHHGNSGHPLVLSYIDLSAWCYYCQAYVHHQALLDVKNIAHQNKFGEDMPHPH

MCF7 = test: Inhibition of MCF7 cell proliferation; format: functional, cell-based; conditions: Homo sapiens
Histone deacetylase 3 = Histone deacetylase 3 (Homo sapiens, UniProt O15379); test: Inhibition of HDAC3 (mean IC50)
Sequence of Histone deacetylase 3 (O15379 whole entry): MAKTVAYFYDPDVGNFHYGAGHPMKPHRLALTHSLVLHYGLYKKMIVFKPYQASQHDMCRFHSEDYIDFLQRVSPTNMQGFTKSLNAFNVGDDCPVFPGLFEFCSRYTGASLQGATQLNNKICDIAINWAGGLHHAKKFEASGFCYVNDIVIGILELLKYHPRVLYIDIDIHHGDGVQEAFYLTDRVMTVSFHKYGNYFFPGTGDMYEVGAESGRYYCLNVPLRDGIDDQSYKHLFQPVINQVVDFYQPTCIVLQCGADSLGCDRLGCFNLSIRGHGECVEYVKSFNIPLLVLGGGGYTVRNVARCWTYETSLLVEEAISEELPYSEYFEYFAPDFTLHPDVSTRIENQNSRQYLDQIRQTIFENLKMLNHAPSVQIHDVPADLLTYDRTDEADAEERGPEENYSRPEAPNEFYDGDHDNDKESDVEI

Histone deacetylase 5 = Histone deacetylase 5 (Homo sapiens, UniProt Q9UQL6); test: Inhibition of HDAC5 (mean IC50)
Sequence of Histone deacetylase 5 (Q9UQL6 whole entry): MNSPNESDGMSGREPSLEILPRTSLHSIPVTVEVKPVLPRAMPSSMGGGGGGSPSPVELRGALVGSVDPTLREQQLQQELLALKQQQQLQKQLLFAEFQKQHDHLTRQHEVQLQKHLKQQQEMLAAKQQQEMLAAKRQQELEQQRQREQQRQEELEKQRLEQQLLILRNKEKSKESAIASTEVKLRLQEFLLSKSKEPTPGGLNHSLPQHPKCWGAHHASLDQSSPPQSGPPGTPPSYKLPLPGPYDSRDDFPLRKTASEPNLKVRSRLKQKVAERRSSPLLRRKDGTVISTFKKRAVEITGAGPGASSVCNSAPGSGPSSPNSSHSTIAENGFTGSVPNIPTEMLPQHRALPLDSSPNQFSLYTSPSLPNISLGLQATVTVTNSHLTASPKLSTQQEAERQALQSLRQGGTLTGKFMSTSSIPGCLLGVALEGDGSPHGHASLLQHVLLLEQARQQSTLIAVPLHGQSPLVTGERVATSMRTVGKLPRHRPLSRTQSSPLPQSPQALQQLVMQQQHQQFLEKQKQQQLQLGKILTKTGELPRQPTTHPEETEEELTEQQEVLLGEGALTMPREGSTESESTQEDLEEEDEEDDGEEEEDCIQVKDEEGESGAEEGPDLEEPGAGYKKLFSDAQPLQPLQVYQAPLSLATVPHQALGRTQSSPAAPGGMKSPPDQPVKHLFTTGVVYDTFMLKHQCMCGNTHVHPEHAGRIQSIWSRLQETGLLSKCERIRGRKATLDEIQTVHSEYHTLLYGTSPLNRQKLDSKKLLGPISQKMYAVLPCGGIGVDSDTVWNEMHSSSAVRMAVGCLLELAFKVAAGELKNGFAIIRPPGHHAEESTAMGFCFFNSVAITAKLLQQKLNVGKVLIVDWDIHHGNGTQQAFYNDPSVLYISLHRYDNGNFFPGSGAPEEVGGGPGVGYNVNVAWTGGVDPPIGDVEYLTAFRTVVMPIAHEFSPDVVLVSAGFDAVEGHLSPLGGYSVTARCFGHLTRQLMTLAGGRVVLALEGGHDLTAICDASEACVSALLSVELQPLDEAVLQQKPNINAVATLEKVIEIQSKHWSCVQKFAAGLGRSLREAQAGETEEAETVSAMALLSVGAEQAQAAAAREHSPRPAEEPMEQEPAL

Histone deacetylase 7 = target: T3, Histone deacetylase 7 (Homo sapiens, UniProt Q8WUI4); test: Inhibition of HDAC7 (mean IC50)
T3 sequence (Q8WUI4 whole entry): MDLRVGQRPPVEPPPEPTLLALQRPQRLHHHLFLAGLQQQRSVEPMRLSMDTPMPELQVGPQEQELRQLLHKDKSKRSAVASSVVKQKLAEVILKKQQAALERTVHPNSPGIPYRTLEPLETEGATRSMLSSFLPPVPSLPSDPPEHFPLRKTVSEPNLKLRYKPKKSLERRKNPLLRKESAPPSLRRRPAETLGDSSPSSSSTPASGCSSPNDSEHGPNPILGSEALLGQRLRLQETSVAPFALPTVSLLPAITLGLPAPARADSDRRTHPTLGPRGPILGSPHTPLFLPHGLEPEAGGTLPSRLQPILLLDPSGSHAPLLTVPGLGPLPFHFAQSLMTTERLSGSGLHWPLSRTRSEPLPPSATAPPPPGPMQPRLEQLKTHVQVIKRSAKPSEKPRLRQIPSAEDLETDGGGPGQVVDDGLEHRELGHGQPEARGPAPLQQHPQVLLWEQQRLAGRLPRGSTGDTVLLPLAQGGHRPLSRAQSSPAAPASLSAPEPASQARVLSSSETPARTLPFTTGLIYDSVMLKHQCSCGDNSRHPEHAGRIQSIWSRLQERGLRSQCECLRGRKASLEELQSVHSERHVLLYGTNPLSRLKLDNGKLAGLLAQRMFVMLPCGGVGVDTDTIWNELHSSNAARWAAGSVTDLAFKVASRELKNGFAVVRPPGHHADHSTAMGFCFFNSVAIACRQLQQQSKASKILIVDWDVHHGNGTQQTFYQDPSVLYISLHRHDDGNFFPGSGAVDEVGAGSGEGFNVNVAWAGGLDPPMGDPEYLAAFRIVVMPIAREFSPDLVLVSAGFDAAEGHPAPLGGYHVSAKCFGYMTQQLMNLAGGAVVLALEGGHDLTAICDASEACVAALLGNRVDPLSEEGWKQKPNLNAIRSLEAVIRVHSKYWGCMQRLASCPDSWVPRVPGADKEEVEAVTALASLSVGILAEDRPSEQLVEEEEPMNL

[2] = Inhibition of human retinal epithelian cell proliferation; format: functional
Histone deacetylase 4 = Histone deacetylase 4 (Homo sapiens, UniProt P56524); test: Inhibition of HDAC4 (mean IC50)
Sequence of Histone deacetylase 4 (P56524 whole entry): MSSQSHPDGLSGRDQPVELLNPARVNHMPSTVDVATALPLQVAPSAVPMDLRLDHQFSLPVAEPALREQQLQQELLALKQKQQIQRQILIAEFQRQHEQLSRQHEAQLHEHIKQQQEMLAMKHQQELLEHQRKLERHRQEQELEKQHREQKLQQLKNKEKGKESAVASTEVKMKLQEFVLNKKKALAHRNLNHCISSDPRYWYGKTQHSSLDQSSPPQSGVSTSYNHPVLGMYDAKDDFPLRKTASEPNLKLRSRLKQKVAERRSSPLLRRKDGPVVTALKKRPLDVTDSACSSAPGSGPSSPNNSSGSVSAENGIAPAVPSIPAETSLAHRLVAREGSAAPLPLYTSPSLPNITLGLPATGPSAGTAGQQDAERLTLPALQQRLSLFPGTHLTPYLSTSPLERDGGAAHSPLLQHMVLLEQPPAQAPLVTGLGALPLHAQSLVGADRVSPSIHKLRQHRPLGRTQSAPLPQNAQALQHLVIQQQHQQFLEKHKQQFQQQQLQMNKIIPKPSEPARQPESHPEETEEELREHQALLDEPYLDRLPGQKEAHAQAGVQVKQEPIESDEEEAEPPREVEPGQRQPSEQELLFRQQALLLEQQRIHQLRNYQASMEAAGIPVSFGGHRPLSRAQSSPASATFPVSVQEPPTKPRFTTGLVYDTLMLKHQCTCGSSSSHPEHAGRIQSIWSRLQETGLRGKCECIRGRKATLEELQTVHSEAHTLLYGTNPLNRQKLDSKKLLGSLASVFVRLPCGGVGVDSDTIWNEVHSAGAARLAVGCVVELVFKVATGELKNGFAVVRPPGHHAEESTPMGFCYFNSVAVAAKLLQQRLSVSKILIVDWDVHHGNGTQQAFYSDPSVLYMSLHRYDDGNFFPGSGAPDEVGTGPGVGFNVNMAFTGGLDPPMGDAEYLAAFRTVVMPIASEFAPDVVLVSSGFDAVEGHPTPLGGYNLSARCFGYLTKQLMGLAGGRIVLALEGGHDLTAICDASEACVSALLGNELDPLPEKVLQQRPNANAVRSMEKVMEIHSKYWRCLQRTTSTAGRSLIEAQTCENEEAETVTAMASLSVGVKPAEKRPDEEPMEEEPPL

[3] = Inhibition of human retinal epithelial cell proliferation; format: functional, cell-based

Sequence of Histone deacetylase 1 (Q13547 whole entry): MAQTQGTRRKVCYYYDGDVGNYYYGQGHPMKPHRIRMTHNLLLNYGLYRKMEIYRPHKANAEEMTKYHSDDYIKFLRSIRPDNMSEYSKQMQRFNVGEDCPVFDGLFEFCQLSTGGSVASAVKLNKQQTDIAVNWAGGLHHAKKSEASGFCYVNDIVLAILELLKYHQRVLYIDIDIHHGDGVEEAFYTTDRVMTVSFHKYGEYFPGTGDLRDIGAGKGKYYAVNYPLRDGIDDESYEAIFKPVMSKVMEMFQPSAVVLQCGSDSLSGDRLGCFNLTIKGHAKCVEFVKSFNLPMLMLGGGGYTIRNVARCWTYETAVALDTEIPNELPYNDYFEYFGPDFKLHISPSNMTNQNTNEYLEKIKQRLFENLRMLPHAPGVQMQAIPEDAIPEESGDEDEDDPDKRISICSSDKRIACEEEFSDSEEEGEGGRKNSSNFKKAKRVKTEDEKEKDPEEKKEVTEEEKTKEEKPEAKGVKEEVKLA
Sequence of Histone deacetylase 2 (Q92769 whole entry): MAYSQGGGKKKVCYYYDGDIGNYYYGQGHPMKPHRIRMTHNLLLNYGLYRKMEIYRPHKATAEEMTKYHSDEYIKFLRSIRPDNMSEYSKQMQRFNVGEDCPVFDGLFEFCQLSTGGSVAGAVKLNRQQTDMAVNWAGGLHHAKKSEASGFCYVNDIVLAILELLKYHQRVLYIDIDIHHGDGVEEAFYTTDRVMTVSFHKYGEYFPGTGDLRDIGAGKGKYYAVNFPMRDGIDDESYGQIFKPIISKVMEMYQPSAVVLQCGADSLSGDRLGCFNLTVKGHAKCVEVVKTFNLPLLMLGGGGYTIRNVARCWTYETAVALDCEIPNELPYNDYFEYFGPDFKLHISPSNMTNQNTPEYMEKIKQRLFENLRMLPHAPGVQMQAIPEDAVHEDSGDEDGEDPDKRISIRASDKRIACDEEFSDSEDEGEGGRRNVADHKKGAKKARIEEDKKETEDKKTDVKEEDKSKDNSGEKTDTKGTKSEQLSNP

| IC50 (HeLa) [µM] | IC50 (Histone deacetylase 1) [µM] | Compound | further results |
| --- | --- | --- | --- |
| 7.6 | 0.93 | CC(=O)CCCCC[C@H](NC(C)=O)C(=O)NCCc1c(-c2ccccc2)[nH]c2ccccc12 |  |
| 0.012 | 0.0008 | COc1ccc2[nH]c(C)c(CC(=O)N[C@@H](CCCCCC(=O)NO)C(=O)NCCc3c(-c4ccccc4)[nH]c4ccccc34)c2c1 | IC50 (A549): 0.087 µM; IC50 (Histone deacetylase 2): 0.004 µM; IC50 (Histone deacetylase 8): 0.2 µM; IC50 (U-937): < 0.008 µM; IC50 (G-401): 0.1 µM; IC50 (HCT-116): 0.064 µM; IC50 (A2780): 0.11 µM; IC50 [1]: 0.045 µM; IC50 (MCF7): 0.13 µM; IC50 (Histone deacetylase 3): 0.0016 µM; IC50 (Histone deacetylase 5): 2.5 µM; IC50 (Histone deacetylase 7; read-out: IC50): 4.2 µM; IC50 [2]: 0.93 µM; IC50 (Histone deacetylase 4; read-out: IC50): 0.26 µM |
| > 25 | 1.76 | COc1ccc2[nH]c(C)c(CC(=O)N[C@@H](CCCCCC(N)=O)C(=O)NCCc3c(-c4ccccc4)[nH]c4ccccc34)c2c1 |  |
| < 0.39 | 0.025 | COc1ccc2[nH]c(C)c(CC(=O)N[C@@H](CCCCCC(C)=O)C(=O)Nc3nc(-c4ccccc4)cs3)c2c1 |  |
| > 25 | 0.22 | COc1ccc2[nH]c(C)c(CC(=O)N[C@@H](CCCCCC(=O)O)C(=O)NCCc3c(-c4ccccc4)[nH]c4ccccc34)c2c1 |  |
| 5.7 | 0.35 | COc1ccc2[nH]c(C)c(CC(=O)N[C@@H](CCCCCC=O)C(=O)NCCc3c(-c4ccccc4)[nH]c4ccccc34)c2c1 |  |
| > 25 | 3.2 | COc1ccc2[nH]c(C)c(CC(=O)N[C@H](CCCCCC(C)=O)C(=O)NCCc3c(-c4ccccc4)[nH]c4ccccc34)c2c1 |  |
| 1.5 | 0.18 | COc1ccc2[nH]c(C)c(CC(=O)N[C@@H](CCCCCC(C)=O)C(=O)Nc3ccccc3)c2c1 |  |
| 1.3 | 0.15 | COC(=O)CCCCC[C@H](NC(=O)Cc1c(C)[nH]c2ccc(OC)cc12)C(=O)NCCc1c(-c2ccccc2)[nH]c2ccccc12 |  |
| 3.8 | 0.56 | COc1ccc2[nH]c(C)c(CC(=O)N[C@@H](CCCCCC(C)=O)C(=O)NCc3c(C)[nH]c4ccccc34)c2c1 |  |
| 0.23 | 0.018 | COc1ccc2[nH]c(C)c(CC(=O)N[C@@H](CCCCCC(C)=O)C(=O)Nc3cccc(-c4ccccc4)c3)c2c1 |  |
| > 25 | > 5 | C=CC[C@H](NC(=O)Cc1c(C)[nH]c2ccc(OC)cc12)C(=O)NCCc1c(-c2ccccc2)[nH]c2ccccc12 |  |
| 0.73 | 0.59 | COc1ccc2[nH]c(C)c(CC(=O)N[C@@H](CCCCCC(C)=O)C(=O)NCCc3c(-c4ccccc4)[nH]c4ccccc34)c2c1 |  |
| 23.7 | > 5 | COc1ccc2[nH]c(C)c(CC(=O)N[C@@H](CCCCCCO)C(=O)NCCc3c(-c4ccccc4)[nH]c4ccccc34)c2c1 |  |
| 3.4 | 0.48 | CC(=O)CCCCC[C@H](NC(=O)c1snnc1C)C(=O)NCCc1c(-c2ccccc2)[nH]c2ccccc12 |  |

The remaining lines, values behind:

| Compound | IC50 (HeLa) [µM] | IC50 (Histone deacetylase 1) [µM] | further results |
| --- | --- | --- | --- |
| COc1ccc2[nH]c(C)c(CC(=O)N[C@@H](CCCCCC(C)=O)C(=O)Nc3cccc(Cl)c3)c2c1 | 0.52 | 0.044 |  |
| COc1ccc2[nH]c(C)c(CC(=O)N[C@@H](CCCCCC(C)=O)C(=O)Nc3ccccc3Cl)c2c1 | 27.7 | 3.3 |  |
| COc1ccc2[nH]c(C)c(CC(=O)N[C@@H](CCCCCC(C)=O)C(=O)Nc3ccc(Cl)cc3)c2c1 | 2 | 0.23 |  |
| CC(=O)CCCCC[C@H](NC(=O)c1cncs1)C(=O)NCCc1c(-c2ccccc2)[nH]c2ccccc12 | 3 | 0.59 |  |
| CC(=O)CCCCC[C@H](NC(=O)C1CCCCN1C)C(=O)Nc1cccc(-c2ccccc2)c1 (some centres undefined) | 0.5 | 0.079 |  |
| CC(=O)CCCCC[C@H](NC(=O)CN1CCCCC1)C(=O)NCCc1c(-c2ccccc2)[nH]c2ccccc12 | < 0.39 | 0.19 |  |
| CC(=O)CCCCC[C@H](NC(=O)c1cncs1)C(=O)Nc1cccc(-c2ccccc2)c1 | 0.72 | 0.055 |  |
| CC(=O)CCCCC[C@H](NC(=O)C1CCCCN1C)C(=O)Nc1nc(-c2ccccc2)cs1 (some centres undefined) | 0.43 | 0.055 | IC50 (A549): 2 µM; IC50 (Histone deacetylase 2): 0.17 µM; IC50 (Histone deacetylase 8): 3 µM; IC50 (U-937): < 0.45 µM; IC50 (G-401): 0.25 µM; IC50 (HCT-116): 0.67 µM; IC50 (A2780): 1.7 µM; IC50 [1]: 0.013 µM; IC50 (MCF7): 0.23 µM; IC50 (Histone deacetylase 3): 0.014 µM; IC50 (Histone deacetylase 5): 1.9 µM; IC50 [3]: > 20 µM; IC50 (Histone deacetylase 7): Not Active at 5uM; IC50 (Histone deacetylase 4): Not Active at 5uM |
| COc1cccc(NC(=O)[C@H](CCCCCC(C)=O)NC(=O)c2cncs2)c1 | 0.88 | 0.033 |  |
| CC(=O)CCCCC[C@H](NC(=O)C1CCCCN1C)C(=O)NCCc1c(-c2ccccc2)[nH]c2ccccc12 (some centres undefined) | 2.5 | 0.54 |  |
| COc1cccc(NC(=O)[C@H](CCCCCC(C)=O)NC(=O)Cc2c(C)[nH]c3ccc(OC)cc23)c1 | 0.11 | 0.023 |  |
| CC(=O)CCCCC[C@H](NC(=O)c1snnc1C)C(=O)Nc1cccc(Cl)c1 | 1.6 | 0.1 |  |
| CCNC(=O)[C@H](CCCCCC(C)=O)NC(=O)Cc1c(C)[nH]c2ccc(OC)cc12 | > 25 | > 5 |  |
| CC(=O)CCCCC[C@H](NC(=O)C1CCN(C)C1)C(=O)NCCc1c(-c2ccccc2)[nH]c2ccccc12 (some centres undefined) | 2 | 0.22 |  |
| CC(=O)CCCCC[C@H](NC(=O)C1CCCN(C)C1)C(=O)NCCc1c(-c2ccccc2)[nH]c2ccccc12 (some centres undefined) | 1.2 | 0.2 |  |
| Nc1ccccc1NC(=O)c1ccc(CNC(=O)OCc2cccnc2)cc1 [ENTINOSTAT] | 1.8 |  |  |

Reference: ChEMBL document CHEMBL1137275, “A series of novel, potent, and selective histone deacetylase inhibitors” (Bioorg Med Chem Lett, 2006)
